Measured values reported in patent publication US9113629B2, “4-amino-6-(4-substituted-phenyl)-picolinates and 6-amino-2-(4-substituted-phenyl)-pyrimidine-4-carboxylates and their use as herbicides” (DOW AGROSCIENCES LLC, priority 2013, dated 2015).
Where two headings read alike, the source gives them in different places.

Columns and labels:
[1] = tested on: Key Broadleaf Weed and Crop Species; assay: Post-emergent Test II herbicidal activity (Table 5); type: in vivo; conditions: post-emergence, 336 h, post-emergent, 14 days after application; for pest or weed control at 70 g/ha: 70 g ai/ha; for pest or weed control at 140 g/ha: 140 g ai/ha
Summary of the method: (§1)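 Greenhouse-grown plants at first or second true leaf stage were sprayed post-emergence with compound in acetone/DMSO-based aqueous spray containing crop oil concentrate and surfactant, at 187 L/ha, highest rate plus ½× to 1/16× dilutions. After 14 d, injury was scored visually versus untreated plants, 0 (none) to 100% (complete kill).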

[2] = tested on: Key Grass and Sedge Weeds as well as Grass Crops; assay: Post-emergent Test II herbicidal activity (Table 6); type: in vivo; conditions: post-emergence, 336 h; for pest or weed control at 70 g/ha: application rate 70 g ai/ha; for pest or weed control at 140 g/ha: application rate 140 g ai/ha
Summary of the method: as §1

[3] = ABUTH: velvetleaf (Abutilon theophrasti), read-out: Visual Growth Reduction (%) 14 Days After Application ABUTH
[4] = AMARE: redroot pigweed (Amaranthus retroflexus), read-out: Visual Growth Reduction (%) 14 Days After Application AMARE
[5] = BRSNN: oilseed-rape, canola (Brassica napus), read-out: Visual Growth Reduction (%) 14 Days After Application BRSNN
[6] = CHEAL: lambsquarters (Chenopodium album), read-out: Visual Growth Reduction (%) 14 Days After Application CHEAL
[7] = EPHHL: wild poinsettia (Euphorbia heterophylla), read-out: Visual Growth Reduction (%) 14 Days After Application EPHHL
[8] = HELAN: sunflower (Helianthus annuus), read-out: Visual Growth Reduction (%) 14 Days After Application HELAN
[9] = VIOTR: wild pansy (Viola tricolor), read-out: Visual Growth Reduction (%) 14 Days After Application VIOTR
[10] = CYPES: yellow nutsedge (Cyperus esculentus), read-out: Visual Growth Reduction (%) 14 Days After Application, CYPES
[11] = DIGSA: crabgrass (Digitaria sanguinalis), read-out: Visual Growth Reduction (%) 14 Days After Application, DIGSA
[12] = ECHCG: barnyardgrass (Echinochloa crus-galli), read-out: Visual Growth Reduction (%) 14 Days After Application, ECHCG
[13] = ORYSA: rice (Oryza sativa), read-out: Visual Growth Reduction (%) 14 Days After Application, ORYSA
[14] = SETFA: giant foxtail (Setaria faberi), read-out: Visual Growth Reduction (%) 14 Days After Application, SETFA
[15] = SORVU: grain sorghum (Sorghum vulgare), read-out: Visual Growth Reduction (%) 14 Days After Application, SORVU
[16] = TRZSS (wheat, Triticum aestivum), read-out: Visual Growth Reduction (%) 14 Days After Application, TRZSS
[17] = ZEAMX: maize, corn (Zea mays), read-out: Visual Growth Reduction (%) 14 Days After Application, ZEAMX

COC(=O)c1nc(-c2cc(F)c(C(F)(F)F)cc2F)c(F)c(N)c1Cl [Compound 144] showed a pest or weed control at 70 g/ha [1, 3] of 85 to 94%, a pest or weed control at 140 g/ha [1, 3] of 95 to 100% and a pest or weed control at 70 g/ha [1, 4] of 95 to 100%. It also gave a pest or weed control at 140 g/ha [1, 4] of 95 to 100%, a pest or weed control at 70 g/ha [1, 5] of 85 to 94% and a pest or weed control at 140 g/ha [1, 5] of 95 to 100%. For the same compound, the pest or weed control at 70 g/ha [1, 6] was 85 to 94%, the pest or weed control at 140 g/ha [1, 6] was 95 to 100% and the pest or weed control at 70 g/ha [1, 7] was 75 to 84%. For the same compound, the pest or weed control at 140 g/ha [1, 7] was 85 to 94%, the pest or weed control at 70 g/ha [1, 8] was 85 to 94% and the pest or weed control at 140 g/ha [1, 8] was 95 to 100%. For the same compound, the pest or weed control at 70 g/ha [1, 9] was 75 to 84%, the pest or weed control at 140 g/ha [1, 9] was 85 to 94% and the pest or weed control at 70 g/ha [2, 10] was 85 to 94%. For the same compound, the pest or weed control at 140 g/ha [2, 10] was 95 to 100%, the pest or weed control at 70 g/ha [2, 11] was 60 to 74% and the pest or weed control at 140 g/ha [2, 11] was 75 to 84%. The pest or weed control at 70 g/ha [2, 12] was 45 to 59%, the pest or weed control at 140 g/ha [2, 12] was 75 to 84% and the pest or weed control at 70 g/ha [2, 13] was 0 to 29%. It also gave a pest or weed control at 140 g/ha [2, 13] of 0 to 29%, a pest or weed control at 70 g/ha [2, 14] of 60 to 74% and a pest or weed control at 140 g/ha [2, 14] of 75 to 84%. The pest or weed control at 70 g/ha [2, 15] was 75 to 84%, the pest or weed control at 140 g/ha [2, 15] was 85 to 94% and the pest or weed control at 70 g/ha [2, 16] was 60 to 74%. It also gave a pest or weed control at 140 g/ha [2, 16] of 75 to 84%, a pest or weed control at 70 g/ha [2, 17] of 60 to 74% and a pest or weed control at 140 g/ha [2, 17] of 75 to 84%. The melting point was 124 to 126 °C.

In the case of COC(=O)c1nc(-c2cc(F)c(C(F)(F)F)cc2F)nc(N)c1OC [Compound 148, methyl 6-amino-2-(2,5-difluoro-4-(trifluoromethyl)phenyl)-5-methoxypyrimidine-4-carboxylate], the pest or weed control at 70 g/ha [1, 3] is reported as 75 to 84%, the pest or weed control at 140 g/ha [1, 3] is reported as 75 to 84% and the pest or weed control at 70 g/ha [1, 4] is reported as 0 to 29%. It also gave a pest or weed control at 140 g/ha [1, 4] of 0 to 29%, a pest or weed control at 70 g/ha [1, 5] of 45 to 59% and a pest or weed control at 140 g/ha [1, 5] of 60 to 74%. It also gave a pest or weed control at 70 g/ha [1, 6] of 85 to 94%, a pest or weed control at 140 g/ha [1, 6] of 95 to 100% and a pest or weed control at 70 g/ha [1, 7] of 85 to 94%. It also gave a pest or weed control at 140 g/ha [1, 7] of 75 to 84%, a pest or weed control at 70 g/ha [1, 8] of 45 to 59% and a pest or weed control at 140 g/ha [1, 8] of 60 to 74%. The pest or weed control at 70 g/ha [1, 9] was 45 to 59%, the pest or weed control at 140 g/ha [1, 9] was 60 to 74% and the pest or weed control at 70 g/ha [2, 10] was 60 to 74%. For the same compound, the pest or weed control at 140 g/ha [2, 10] was 75 to 84%, the pest or weed control at 70 g/ha [2, 11] was 0 to 29% and the pest or weed control at 140 g/ha [2, 11] was 0 to 29%. It also gave a pest or weed control at 70 g/ha [2, 12] of 0 to 29%, a pest or weed control at 140 g/ha [2, 12] of 0 to 29% and a pest or weed control at 70 g/ha [2, 13] of 0 to 29%. The pest or weed control at 140 g/ha [2, 13] was 30 to 44%, the pest or weed control at 70 g/ha [2, 14] was 0 to 29% and the pest or weed control at 140 g/ha [2, 14] was 0 to 29%. For the same compound, the pest or weed control at 70 g/ha [2, 15] was 0 to 29%, the pest or weed control at 140 g/ha [2, 15] was 0 to 29% and the pest or weed control at 70 g/ha [2, 16] was 30 to 44%. The pest or weed control at 140 g/ha [2, 16] was 60 to 74%, the pest or weed control at 70 g/ha [2, 17] was 0 to 29% and the pest or weed control at 140 g/ha [2, 17] was 30 to 44%. The melting point was 96 to 98 °C.
